According to patent publication US20080318912A1, “Medicaments for Treating Chronic Respiratory Disease” (priority 2004, published 2008):
Read-outs that look alike come from different tables or passages of the source.

Key:
[1] = test system: phosphodiesterases; conditions: cited from earlier work
[2] = test system: LPS induced increases in BAL cells; assay: LPS challenge induced inflammation, BAL cell counts 24 h post challenge; assay type: in vivo, A/J mice
Description: Previous studies have shown that peak BAL neutrophilia is achieved 24 h post intranasal challenge with LPS at 0.3 μg. In the studies reported here this dose of LPS and this time point were employed. Control animals received phosphate buffered saline (PBS) intranasally.
Approximately 3 min prior to intra-nasal challenge anaesthesia was induced by isofluorane inhalation. Vehicle (PBS) or LPS was instilled at 50 μl per mouse. The LPS concentration was 6 μg/ml (0.3 μg per mouse). Animals were allowed to recover in a heated box at 37° C. and then returned to the home cage.
(§1) The trachea was cannulated using a Portex nylon intravenous cannula (pink luer fitting) shortened to approximately 8 mm. Phosphate buffered saline (PBS) containing heparin (10 units/ml) was used as the lavage fluid. A volume of 0.4 ml was gently instilled and withdrawn 3 times using a 1 ml syringe and then placed in an Eppendorf tube and kept on ice prior to subsequent determinations.
(§2) Lavage fluid was separated from cells by centrifugation and the supernatant decanted and frozen for subsequent analysis. The cell pellet was re-suspended in a known volume of PBS and total cell numbers calculated by counting a stained (Turks stain) aliquot under a microscope using a haemocytometer.
(§3) The residual cell pellet was diluted to approximately 10^5 cells per ml. A volume of 500 μl was placed in the funnel of a cytospin slide and centrifuged for 8 min at 800 rpm. The slide was air dried and stained using ‘Kwik-Diff’ solutions (Shandon) as per the proprietary instructions. When dried and cover-slipped, differential cells were counted using light microscopy. Up to 400 cells were counted by un biased operator using light microscopy. Cells were differentiated using standard morphometric techniques.
Animals were sacrificed 24 h post the LPS challenge. A BAL was performed and the total number of cells recovered counted. Data are presented as individual points and the mean values shown. Data are from 9-10 animals per group. Statistical analysis was by ANOVA. […]

[3] = test system: TS induced inflammation (cells recovered in the BAL); assay: Tobacco smoke (TS) induced inflammation, BAL cell counts 24 h after 11 daily exposures; assay type: in vivo, A/J mice; conditions: for Inhibition, Total Cells (BAL) / Inhibition, Eosinophils (BAL) / Inhibition, Epithelial Cells (BAL) / Inhibition, Lymphocytes (BAL) / Inhibition, Macrophages (BAL) / Inhibition, Neutrophils (BAL): 11 daily TS exposures
From the text: Female inbred AJ mice (body weights on initial day of use: 17.2-27.4 g) were obtained from Harlan, full barrier bred and certified free from specified micro-organisms on receipt. The mice were housed, up to 5 per cage, in individually ventilated, polycarbonate solid bottomed cages (IVC) with grade 8 aspen chip bedding. Environment (airflow, temperature and humidity) within the cages was controlled by the IVC system (Techniplast). Food (RM 1, Special Diet Services) and water were provided ad libitum. Individual animals were identified by unique coloured “pentel” markings on their tails, weighed and randomly assigned to treatment groups.
The required quantity of compound was placed into a mortar. Half the required volume CMC was slowly added to form a fine paste and then this was carefully added back to a container. The residual volume of CMC required to achieve the required dose is used to wash out the mortar and the washings added back to the container. For the combination dose, each compound was formulated at double the final required concentration and an equal volume of each compound added together. […]
In this exposure protocol, mice were exposed in groups of 5 in individual clear polycarbonate chambers (27 cm×16 cm×12 cm). The TS from the cigarettes was allowed to enter the exposure chambers at a flow rate of 100 ml/min. In order to minimise any potential problems caused by repeated exposure to a high level of TS (6 cigarettes), the exposure of the mice to TS was increased gradually over the exposure period to a maximum of 6 cigarettes. The exposure schedule used in this study was as follows:
as §1, §2, §3
In addition, animals receiving steroid or the steroid combination were dosed with steroid 20 h prior to the first TS exposure. The control group of mice (shams) received vehicle on days 1 to 11 and were exposed to air daily for a maximum of 50 minutes per day. BAL was performed on day 12, 24 h following the eleventh and final TS exposure.
Since tests for normality were positive the data was subjected to a one way analysis of variance test (ANOVA), followed by a Bonferroni correction for multiple comparisons in order to test for significance between treatment groups. A “p” value of <0.05 was considered to be statistically significant. Percentage inhibitions were automatically calculated within the Excel spreadsheets for the cell data using the formula below: […]
Animals were sacrificed 24 h post the final exposure to TS/air. A BAL was performed and the total number of cells recovered counted. Data are presented as individual points and the mean values shown. Data are from 9-10 animals per group. Statistical analysis was by ANOVA. A “p” value of <0.05 was considered statistically significant. ns=not statistically significant.

[4] = cited from earlier work
[5] = Pharmacokinetic evaluation of plasma levels of theophylline after oral dosing; assay type: in vivo, A/J mice; conditions: for concentration at 15 min / concentration at 30 min / concentration at 60 min / concentration at 240 min: A/J, mouse, plasma; for concentration at 15 min: 15 minutes post dosing; for concentration at 60 min: 60 minutes post dosing; for concentration at 240 min: 240 minutes post dosing
Description: The collected blood was mixed and decanted into eppendorf tubes before centrifugation in a microftige. Plasma was collected and stored at −80° C. prior to analysis by an HPLC/MS/MS method. The equipment used in the measurement of plasma levels were a Micromann Quatro Micro Mass Spectrometer (Micromass UK Limited) and a Waters 2795 Alliance HT liquid chromatograph (Waters USA).
Samples were prepared for analysis by adding 200 μl of acetonitrile (containing 0.25 mg/l dextrorphan as an internal standard) to 50 μl of each thawed sample and standard and mixed vigorously. Each sample and standard was then centrifuged at 1000 g for 2 minutes and the supernatant removed for LC-MS/MS analysis.
Analysis of theophylline and dextrorphan was carried out using reverse phase HPLC with tandem mass spectrometric detection (LC-MS/MS). Positive ions for parent compound and a specific fragment product were monitored in a Multiple Reaction Monitoring mode using a Micromass Quatro Micro Mass Spectrometer with Micromass MassLynx software version 4.0. A 25 μl aliquot of each sample and standard was injected onto the liquid chromatography system.

[6] = 250 or 375 mg theophylline with 400 μg budesonide twice daily, asthma patients; cited from earlier work
[7] = test system: adenosine receptors (A1 and A2 receptors); conditions: at therapeutic concentrations; cited from earlier work
[8] = theophylline 3 mg/kg p.o. twice daily, BAL 24 h post
[9] = dexamethasone 0.3 mg/kg p.o. at -20, -1 and 6 h relative to LPS (0.3 μg i.n.), BAL 24 h post challenge
[10] = dexamethasone 0.3 mg/kg p.o. twice daily, BAL 24 h post

Cn1c(=O)c2[nH]cnc2n(C)c1=O [Theophylline, 3,7-dihydro-1,3-dimethyl-1H-purine-2,6-dione]
Inhibition of phosphodiesterases [1]: weak and nonselective inhibitor
Activity on LPS induced pulmonary inflammation ([2]; theophylline at the dose level tested (0.3 mg/kg p.o.)): without activity
Inhibitory effect on any of the specific cell types (BAL) ([3]; theophylline 3 mg/kg alone p.o., 1 h prior to and 6 h post TS, 11 days): No statistically significant inhibitory effect
Inhibition, Total Cells (BAL) ([3]; theophylline 3 mg/kg p.o. twice daily (-1 h and +6 h), BAL 24 h post final exposure): −11%
Inhibition, Eosinophils (BAL) [3, 8]: −56%
Inhibition, Epithelial Cells (BAL) [3, 8]: −18%
Inhibition, Lymphocytes (BAL) [3, 8]: 1%
Inhibition, Macrophages (BAL) [3, 8]: −4%
Inhibition, Neutrophils (BAL) [3, 8]: −10%
Anti-inflammatory activity in the COPD (TS) model ([3]; theophylline given alone): failed to demonstrate any significant anti-inflammatory activity
Bioavailability ([4]; absorption from the gastrointestinal tract): 90-100%
Mean plasma half-life ([4]; adults): about 8 hours
Plasma levels regarded as being necessary for anti-inflammatory efficacy ([4]; in vivo): 10000 to 20000 ng/mL
Plasma half-life ([4]; premature neonates): approximately 30 hours
Time to peak levels following ingestion ([4]; slowed by the presence of food): 1 to 2 h
Plasma half-life ([4]; up to the age of 20): approximately 3.5 hours
concentration at 15 min ([5]; oral dose 0.3 mg/kg, mean ± SD): 130 ± 6 ng/mL
concentration at 30 min ([5]; oral dose 0.3 mg/kg, 30 minutes post dosing, mean ± SD): 140 ± 25 ng/mL
concentration at 60 min ([5]; oral dose 0.3 mg/kg, mean ± SD): 256 ± 198 ng/mL
concentration at 240 min ([5]; oral dose 0.3 mg/kg, mean ± SD): 65 ± 11 ng/mL
concentration at 15 min ([5]; oral dose 1 mg/kg, mean ± SD): 740 ± 760 ng/mL
concentration at 30 min ([5]; oral dose 1 mg/kg, 30 minutes post dosing, mean ± SD): 660 ± 122 ng/mL
concentration at 60 min ([5]; oral dose 1 mg/kg, mean ± SD): 410 ± 84 ng/mL
concentration at 240 min ([5]; oral dose 1 mg/kg, mean ± SD): 60 ± 15 ng/mL
concentration at 15 min ([5]; oral dose 3 mg/kg, mean ± SD): 1860 ± 290 ng/mL
concentration at 30 min ([5]; oral dose 3 mg/kg, 30 minutes post dosing, mean ± SD): 3660 ± 2640 ng/mL
concentration at 60 min ([5]; oral dose 3 mg/kg, mean ± SD): 1470 ± 110 ng/mL
concentration at 240 min ([5]; oral dose 3 mg/kg, mean ± SD): 90 ± 100 ng/mL
Plasma concentrations at all time points ([5]; oral dose 0.3 mg/kg): less than 1 mg/l
Time of peak levels ([5]; oral dose 3 mg/kg): 30 min
Plasma level of the one animal above 5 mg/l ([5]; oral dose 3 mg/kg, 30 minute time point, single animal): 6.7 mg/A
Plasma Levels ([5]; oral dose 3 mg/kg, 30 minutes post dosing, mean ± SD, 3 mg/kg): 3660 ± 2640 ng/mL
Plasma concentration achieved (median value) [6]: 8700 ng/mL
Inhibition of adenosine receptors (antagonism of A1 and A2 receptors) [7]: potent inhibitor

C[C@@H]1C[C@H]2[C@@H]3CCC4=CC(=O)C=C[C@]4(C)[C@@]3(F)[C@@H](O)C[C@]2(C)[C@@]1(O)C(=O)CO [Dexamethasone, dexamethasone]
Reduction of neutrophils in BAL [2, 9]: 71%
Reduction of total cells in BAL [2, 9]: 68%
Inhibition, Eosinophils (BAL) [3, 10]: −94%
Inhibition, Epithelial Cells (BAL) [3, 10]: −20%
Inhibition, Lymphocytes (BAL) [3, 10]: −7%
Inhibition, Macrophages (BAL) [3, 10]: −14%
Inhibition, Neutrophils (BAL) [3, 10]: −46%
Inhibition, Total Cells (BAL) [3, 10]: −16%
